Assay results reported in paper PMC8362126, “Proteolysis Targeting Chimera (PROTAC) for Macrophage Migration Inhibitory Factor (MIF) Has Anti‐Proliferative Activity in Lung Cancer Cells” (Angewandte Chemie (International Ed. in English), 2021).
“Also recorded” adds a separate entry of the source.

Experiments:
Type in all cases: cell-based, human
A549 cells [1] = test: CyQUANT cell proliferation assay; conditions: 72 hours; for effect on cell proliferation: concentrations up to 20 μM
Description: S8. Cell growth, cell cycle and pERK signaling study
Cell proliferation was measured with the CyQUANT® Direct Cell Proliferation Assay Kit (Thermo Fisher, #C35011). A549 cells were cultured in 96-well plates at a density of 1,000 cells/well and treated with different concentrations of MIF PROTAC (0.02-20 μM) for 72 h.
Cells were incubated with detection reagent (100 μL) for 60 min at 37 °C with 5% CO2. The fluorescence of each well was read at 485/535nm by plate reader (BioTek).
Figure S8. Cells were seeded with a density of 1000 cells per well in a 96-well plate. After overnight incubation, the cells were treated with various concentration of MD13 for 72 hours.
The resulting cells were quantified by CyQUANT® cell proliferation assays and compared with the vehicle (DMSO) control (n=3). […]
(also on this page, place not known: (0.02 -20 CO 2. (20 µM) 4 (20 µM) µM 20 µM 0.01 µM 0.08 µM 0.74 µM 6.7 µM 20 µM 0 50 100 Cell (%) H441 n.s. * * ** *** * n.s. MD15 96 -well MD13 proliferation control 96 -well round - 2 3) […]
(§1) (1 picture or pasted object on this page, not shown here)

A549 cell spheroids = test: 3D tumor spheroid assay; conditions: 12 days; for influence on spheroid tumor growth: 5 μM
Description: A 3D spheroid model was employed to investigate the effect of longer term MD13 treatment in a more complex model for tumor growth. The 3D spheroid model was established using A549 cancer cells by a method adapted from Feng et al.[48] The spheroids were grown over a 12‐day period in absence or presence of PROTAC MD13. Each spheroid was prepared from about 1000 A549 cells. After three‐day incubation, these spheroids were treated with 1, 2, or 5 μM of MD13 with 72 hours intervals over 12 days. Spheroid growth was monitored by measuring the diameter and this was compared to day 0 of the treatment. The tumor spheroids in MD13 treated groups were significant smaller compared to the control group (Figure 5 B and Figure S9). With continuous exposure to 1, 2, or 5 μM of MD13 for 12 days, the growth of the spheroid tumor volume was inhibited by 42 %, 53 %, and 81 % compared with control group, respectively. […]
Tumor spheroid assay. A549 cells (1000 cells/well) were seeded onto a 96-well round-bottomed ultra low attachment plate (Corning). After 2 days of incubation without disturbance, the spheroid was treated with indicated compound every 3 days. […]
(1 picture or pasted object on this page, not shown here) […]
inverted microscope (Nikon Eclipse Ti) connected with a NIS-elements software. The data were analyzed and plotted with Graphpad Prism8. […]
cells were seeded in an ultralow attachment 96-well round-bottomed plate (1000 cells/well) to generate tumor spheroids (a single spheroid per well). After initiation, the spheroids were treated with different compounds at the indicated concentrations every three days. DMSO was used as vehicle control. The day of the first treatment was indicated as day 0. (A) Representative images were obtained at the indicated intervals using an inverted microscope. Scale bar: 500 μm. (B) Analysis was carried out using NIS-Elements AR 3.1 software, and growth curves were obtained relative to the untreated spheroids (day 0) and plotted with GraphPad Prism 8. Values are shown as means ± SD (n = 3 spheroids/time point, **p < 0.01 vs control). […]

A549 cells [2] = test: Cell cycle analysis by flow cytometry (propidium iodide); conditions: 48 h; for proportion of cells at the G2/M phase: control group 12 %
Description: The effect of MIF‐directed PROTAC MD13 on cell cycle progression was further analyzed using flow cytometry (Figure 6). A549 cells were treated with MD13 at concentrations of 1, 2, or 5 μM for the duration of 48 h before analysis using flow cytometry. […] The proportion of cells at the G2/M phase is 12 % for the control group. This percentage increases to 17 %, 19 %, and 23 % upon treatment with 1, 2, and 5 μM MD13, respectively. […]
Flow cytometry. For cell cycle analysis, A549 cells were seeded in 6 -well plates at a density of 1x10^5 per well. The next day, the cells were treated with the appropriate compound or vehicle for 48h. Subsequently, the cells were washed with PBS (3 ×) and then harvested after trypinzation. After centrifugation at 300g, the cells were incubated with a solutio n containing 20 µg/ml propidium iodide (PI) (Sigma, P4864) and 0.1% (v/v) Triton -X100 (Sigma, T8787) for 15 min at room temperature. Fluorescence was detected by a Cytoflex flow cytometer […]
as §1
(Beckman Coulter, Woerden, the Netherlands) immediately. 30,000 cells were collected for each sample. Data were analyzed using FlowJo software (Tree start, Ashland, USA). […]

SMILES | inhibition at 20 µM (A549 cells [1]; Homo sapiens, 20 μM, 2D culture) | inhibition at 1 µM (A549 cell spheroids; Homo sapiens, A549, 1 μM, treated every three days, read-out: inhibition of growth of spheroid tumor volume) | inhibition at 2 µM (A549 cell spheroids; Homo sapiens, A549, 2 μM, treated every three days, read-out: inhibition of growth of spheroid tumor volume) | inhibition at 5 µM (A549 cell spheroids; Homo sapiens, A549, 5 μM, treated every three days, read-out: inhibition of growth of spheroid tumor volume) | proportion of cells at the G2/M phase (A549 cells [2]; 1 μM) | proportion of cells at the G2/M phase (A549 cells [2]; 2 μM) | proportion of cells at the G2/M phase (A549 cells [2]; 5 μM) | effect on cell proliferation (A549 cells [1]) | influence on spheroid tumor growth (A549 cell spheroids) | effect on the cell cycle (A549 cells [2]; 5 μM)
O=C1CCC(N2C(=O)c3cccc(NCCCCCCCC(=O)Nc4ccc(N5Cc6ccc(O)cc6OC5=O)cc4)c3C2=O)C(=O)N1 (stereo not drawn) [MD13] | ~50% | 42% | 53% | 81% | 17% | 19% | 23% |  |  | 
CN1C(=O)CCC(N2C(=O)c3cccc(NCCCCCCCC(=O)Nc4ccc(N5Cc6ccc(O)cc6OC5=O)cc4)c3C2=O)C1=O (stereo not drawn) [MD15] |  |  |  |  |  |  |  | almost no inhibition; also recorded: no or little effect | no significant influence | little or no effect
COc1ccc(N2Cc3ccc(O)cc3OC2=O)cc1OC [compound 3] |  |  |  |  |  |  |  | no effect; also recorded: no or little effect | no significant influence | 
